Molecules are shown by their SMILES.

For data set [1], the system named is influenza HA vaccine (influenza virus A/PR/8/34). Also noted: species or system BALB/c mice. The settings on record: mouse, in vivo, po.
Data set [2] deals with pertussis-diphtheria-tetanus combined vaccine. Also on record: species or system mice. The conditions noted are these: mouse, in vivo, po.
In the next data set the test system is measles-rubella vaccine. Format: in vivo, mice. The settings on record: blood; vaccine nasal twice at 3-week intervals; adjuvant oral before and after first inoculation.
The subject of another data set is Mycoplasma. Format: in vivo, mice.
A further data set has as its system influenza HA vaccine. The conditions noted are these: mouse, in vivo.
The subject of the next data set is rotavirus vaccine. The format is in vivo, mice. The conditions noted are these: blood.

For `CCCCC[C@H](O)[C@H](O)/C=C/[C@H](O)CCCCCCCC(=O)O` [9R,12R,13S-trihydroxy-10E-octadecenoic acid], in data set [1], the “titer of anti-influenza virus IgA antibody in nasal irrigation liquids” value was “strongly enhanced” and the “titer of anti-influenza virus IgG1 antibody in nasal irrigation liquids” value is on record as “strongly enhanced”.

In the case of `CCCCC[C@H](O)[C@H](O)/C=C/[C@@H](O)CCCCCCCC(=O)O` [9S,12R,13S-trihydroxy-10E-octadecenoic acid], in data set [1], the “titer of anti-influenza virus IgA antibody in nasal irrigation liquids” value is “strongly enhanced” and the “titer of anti-influenza virus IgG1 antibody in nasal irrigation liquids” value is “strongly enhanced”.

On to `CCCCC[C@H](O)[C@@H](O)/C=C/[C@@H](O)CCCCCCCC(=O)O` [9S,12S,13S-trihydroxy-10E-octadecenoic acid], for which, in data set [1], the “titer of anti-influenza virus IgA antibody in nasal irrigation liquids” value is given as “strongly enhanced”, the “titer of anti-influenza virus IgA antibody in the sera” value is “significantly increased”, the “titer of anti-influenza virus IgG1 antibody in nasal irrigation liquids” value is “strongly enhanced” and the “titer of anti-influenza virus IgG1 antibody in the sera” value is on record as “significantly increased”. Also, in data set [2], the “level of anti-DT-IgA antibody in the nasal irrigation liquid” value is 11 ELISA units, the “level of anti-PT-IgA antibody in the nasal irrigation liquid” value came out at 14 ELISA units, the “level of anti-TT-IgA antibody in the nasal irrigation liquid” value was 11 ELISA units and the “level of anti-diphtheria toxoid (DT)-IgG antibody in the blood” value is reported as 70 ELISA units. Besides, in data set [2], the “level of anti-pertussis toxin (PT)-IgG antibody in the blood” value is 442 ELISA units and the “level of anti-tetanus toxoid (TT)-IgG antibody in the blood” value came to 75 ELISA units. In addition, in the data set with measles-rubella vaccine, the “ELISA titer of antibody produced for measles” value amounted to 0.30 and the “ELISA titer of antibody produced for rubella” value amounted to 0.29. Moreover, in the data set on Mycoplasma (mouse, in vivo, po), the “mice with lesions associated with Mycoplasma infection” value is 3 of 10. For the same compound, in the data set on Mycoplasma (vaccine intranasal three times at 2-week intervals, adjuvant oral before and after first inoculation), the “average number of lesions” value is 178. Besides, the “titer of anti-influenza vaccine IgE antibody in the bronchoalveolar irrigation liquid” value with influenza HA vaccine is reported as “significantly decreased”.

In the case of `CCCCC[C@H](O)[C@@H](O)/C=C/[C@@H](O)CCCCCCCC(=O)OC` [methyl ester derivative, methyl 9S,12S,13S-trihydroxy-10E-octadecenoate], the “ELISA titer of antibody produced, vaccine inoculated orally” value in the data set on rotavirus vaccine (rotavirus vaccine inoculated orally) is recorded as 0.27. In addition, in the data set on rotavirus vaccine (rotavirus vaccine nasal twice at 3-week intervals, adjuvant oral before and after first inoculation), the “ELISA titer of antibody produced, nasal vaccine drop” value came to 0.38.

For the origin of these results see patent publication US7560484B2 (priority 2000, dated 2009).
